Results published in patent US5872281A, “Amino acid derivative having N,N-dialkylaminophenyl group” (Santen Pharmaceutical Co., Ltd., priority 1995, dated 1999).

Legend:
LTA4 hydrolase [1] = settings: JP-A 2-134375; J. Med. Chem., 37, 3197-3199 (1994); cited from earlier work
LTA4 hydrolase [2] = target: T1, LTA4 hydrolase (Cavia porcellus, UniProt P19602); assay: LTA4 hydrolase inhibition, LTB4 produced from LTA4 (guinea pig lung enzyme preparation), measured by HPLC; type: biochemical; settings: LTA4 63 μM; HEPES 50 mM, pH 7.8; enzyme preparation 0.4-0.6 mg protein; DTT 3 mM; 37° C., one minute; read-out: IC50 (concentration required to inhibit LTA4 hydrolase by 50%)
T1 construct: prepared by extracting roughly from guinea pig lung; from tissue; host or cells: guinea pig (Hartley) lung, 100,000×g supernatant, 40-70% ammonium sulfate fraction, dialyzed
T1 sequence (P19602 1-611): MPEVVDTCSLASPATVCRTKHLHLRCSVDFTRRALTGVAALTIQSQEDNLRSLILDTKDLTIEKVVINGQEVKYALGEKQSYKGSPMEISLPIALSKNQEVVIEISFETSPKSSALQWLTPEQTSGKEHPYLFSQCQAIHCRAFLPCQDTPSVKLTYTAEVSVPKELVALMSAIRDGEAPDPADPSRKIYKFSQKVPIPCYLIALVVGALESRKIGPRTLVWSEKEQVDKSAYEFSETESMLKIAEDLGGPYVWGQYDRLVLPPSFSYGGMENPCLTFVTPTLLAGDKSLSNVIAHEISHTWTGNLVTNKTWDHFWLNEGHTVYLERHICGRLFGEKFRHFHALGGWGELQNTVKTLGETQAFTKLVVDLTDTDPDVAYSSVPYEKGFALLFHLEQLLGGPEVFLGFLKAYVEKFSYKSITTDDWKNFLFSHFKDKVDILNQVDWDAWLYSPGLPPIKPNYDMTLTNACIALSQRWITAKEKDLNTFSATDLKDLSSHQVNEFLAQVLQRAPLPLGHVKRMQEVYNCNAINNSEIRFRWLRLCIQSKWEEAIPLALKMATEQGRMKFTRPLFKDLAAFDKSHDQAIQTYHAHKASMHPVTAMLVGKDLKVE
Protocol: Izumi et al. had reported a method of measuring LTA4 hydrolase activity by measuring an amount of LTB4 produced by an enzymatic reaction using LTA4 as a substrate (Biochem. Biophys. Res. Commun., 135, 139-145 (1986)). Effects of the present compounds on LTA4 hydrolase were examined according to the method described in the literature.
An enzyme preparation used in this pharmacological test was prepared by extracting roughly from guinea pig lung by the following method, according to the method of Izumi et al. (Biochem. Biophys. Res. Commun., 135, 139-145 (1986)) and the method of Evans et al. (Biochem. Biophys. Acta, 840, 43-50 (1985)).
Lungs were excised from Hartley guinea pigs (body weight: 330 g). The lungs were homogenized in phosphoric acid buffer (50 mM, pH 7.4, containing 1 mM ethylenediaminetetraacetic acid (EDTA) and 1 mM dithiothreitol (DTT)) having weight three times that of the lungs under ice-cooling. The homogenate was centrifuged at low speed (800×g) for 20 minutes, centrifuged at high speed (10,000×g) for 20 minutes and ultraccntrifugcd (100,000×g) for 60 minutes to give a supernatant. The supernatant was brought to 40% saturation by adding a saturated aqueous ammonium sulfate solution (pH 7.0-7.2, containing 1 mM DTT) dropwise under ice-cooling and centrifuged at high speed (10,000×g) for 20 minutes. The resulting supernatant was brought to 70% saturation by adding a saturated aqueous ammonium sulfate solution (pH 7.0-7.2, containing 1 mM DTT) dropwise and centrifuged at high speed (10,000×g) for 20 minutes. The obtained pellet was dissolved in 2 ml of Tris-acetic acid buffer (20 mM, pH 7.8, containing 1 mM DTT) and dialyzed in 2 liters of the solution to give the enzyme preparation.
LTA4 used, which is the substrate, was prepared by hydrolyzing LTA4 methyl ester and dissolved in ethanol.
In order to examine effects of the present compounds on the enzyme preparation, reactions were performed under the following condition using mixed solutions consisting of the composition shown in Table 1. […]
HEPES buffer 50 mM, pH 7.8
Enzyme preparation 0.4-0.6 mg protein
The above-mentioned solution (50 μl) was incubated at 37° C. for one minute. To the reaction mixture was added 100 μl of a mixed liquid of acetonitrile-ethanol-acetic acid (150:50:3, volume ratio) under ice-cooling. The mixture was allowed to stand at -20° C. for 30 minutes and centrifuged at high speed (10,000×g) for five minutes to give a supernatant. An amount of LTB4 produced in the supernatant was measured by high-speed liquid chromatography.
The degree of the inhibitory effect of each test compound on LTA4 hydrolase is expressed by the inhibition rate calculated by the following equation. [formula] Results

[3] = test system: arthritis in a collagen-induced arthritis model; settings: J. Med. Chem., 37, 3197-3199 (1994); cited from earlier work

Structure (SMILES)	LTA4 hydrolase inhibitory activity (reported, in words) (LTA4 hydrolase [1])	IC50 (LTA4 hydrolase [2]) [nM]	inhibition of sideration of arthritis (in words) [3]
O=C(O)c1cccc(C2CO2)c1 (stereo not shown) [3-Oxiranyl benzoic acid]	LTA4 hydrolase inhibitory activity	–	–
CC(C)C(CS)C(=O)N[C@@H](CSCc1ccc(N(C)C)cc1)C(=O)O (mixture of isomers) [Compound No. 3-24, (2R)-3-[4-(N,N-Dimethylamino)benzylthio]-2-[(2RS)-2-isopropyl-3-mercaptopropionylamino]propionic acid]	–	1100	–
C[C@H](CS)C(=O)N[C@@H](CSCc1ccc(N(C)C)cc1)C(=O)O [Compound No. 3-1, (2R)-3-[4-(N,N-Dimethylamino)benzylthio]-2-[(2S)-3-mercapto-2-methylpropionylamino]propionic acid]	–	240	–
CCOC(=O)[C@H](CSCc1ccc(N(C)C)cc1)NC(=O)[C@H](C)CS [Compound No. 8-1, Ethyl (2R)-3-[4-(N,N-dimethylamino)benzylthio]-2-[(2S)-3-mercapto-2-methylpropionylamino]propionate]	–	590	–
C[C@H](S)C(=O)N[C@@H](CSCc1ccc(N(C)C)cc1)C(=O)O [Compound No. 3-19, (2R)-3-[4-(N,N-Dimethylamino)benzylthio]-2-[(2S)-2-mercaptopropionylamino]propionic acid]	–	5600	–
CCCC(CS)C(=O)N[C@@H](CSCc1ccc(N(C)C)cc1)C(=O)O (mixture of isomers) [Compound No. 3-23, (2R)-3-[4-(N,N-Dimethylamino)benzylthio]-2-[(2RS)-3-mercapto-2-propylpropionylamino]propionic acid]	–	290	–
C[C@@H](CS)C(=O)N[C@@H](CSCc1ccc(N(C)C)cc1)C(=O)O [Compound No. 3-21, (2R)-3-[4-(N,N-Dimethylamino)benzylthio]-2-[(2R)-3-mercapto-2-methylpropionylamino]propionic acid]	–	1500	–
CCN(CC)c1ccc(CSC[C@H](NC(=O)[C@H](C)CS)C(=O)O)cc1 [Compound No. 3-9, (2R)-3-[4-(N,N-Diethylamino)benzylthio]-2-[(2S)-3-mercapto-2-methylpropionyl]aminopropionic acid]	–	900	–
CN(C)c1ccc(CSC[C@H](NC(=O)C(CS)CCc2ccccc2)C(=O)O)cc1 (single isomer, unassigned) [Compound No. 3-27, (2R)-3-[4-(N,N-Dimethylamino)benzylthio]-2-[(2R or 2S)-2-phenetyl-3-mercaptopropionylamino]propionic acid]	–	3800	–
CN(C)c1ccc(CSC[C@H](NC(=O)C(CS)CCc2ccccc2)C(=O)O)cc1 (single isomer, unassigned) [Compound No. 3-26, (2R)-3-[4-(N,N-Dimethylamino)benzylthio]-2-[(2S or 2R)-2-phenetyl-3-mercaptopropionylamino]propionic acid]	–	500	–
CCC(CS)C(=O)N[C@@H](CSCc1ccc(N(C)C)cc1)C(=O)O (mixture of isomers) [Compound No. 3-22, (2R)-3-[4-(N,N-Dimethylamino)benzylthio]-2-[(2RS)-2-ethyl-3-mercaptopropionylamino]propionic acid]	–	400	–
O=C(O)C1(c2ccc3c(c2)OC[C@H](Cc2ccc(-c4ccccc4)cc2)[C@H]3O)CCCC1 [(+)-1-(3S, 4R)-[3-(4-phenylbenzyl)-4-hydroxychroman-7-yl]cyclopentanecarboxylic acid]	LTA4 hydrolase inhibitory activity	–	inhibit sideration of arthritis
